Experimental data as given in patent publication US10568840B2, “Self assembled gels for controlled delivery of encapsulated agents to cartilage” (The Brigham and Women's Hospital, Inc., priority 2016, dated 2020).

Key:
[1] = Log P of GRAS amphiphiles; assay type: physicochemical; settings: GRAS amphiphile alone
Source text: (log P is the partition coefficient of a molecule between an aqueous and lipophilic phases, usually octanol and water; commonly used as a measure of lipophilicity of a compound.)

[2] = In vitro release of L-006235 from SP and SP-DOTAP hydrogel (dialysis, HPLC); assay type: physicochemical; settings: from hydrogel in PBS at 37° C.; in 7 days
Method: SP-DOTAP gel was assayed for its ability to retain the encapsulated Cathepsin-K inhibitor, L-006235, loaded at 10% (w/w). In vitro release of L-006235 from SP-only hydrogel and from SP-DOTAP hydrogel was evaluated in PBS at 37° C. Drug-loaded hydrogels (200 μL, 10 mg drug/mL) further suspended in PBS (800 μl) were placed in dialysis tubing (8-10 kD molecular weight cut-off, Spectrum Labs). The dialysis bags filled with hydrogel in the suspension medium were placed in a 40 mL sink medium (PBS), and incubated at 37° C. with a shaking speed of 150 rpm. At each time point, an aliquot (1 ml) from the sink medium was removed and replenished with the same volume of fresh PBS to ensure constant sink conditions. Aliquots were lyophilized and dissolved in 250 μL methanol, followed by high performance liquid chromatography (HPLC) analysis of the drug amount.

Compound	logP ([1]; aqueous and lipophilic phases, usually octanol and water, Table 1)	cumulative release of L-006235 [2]	Log P ([1]; Table 1)	Log P ([1]; Table 2)
CCCCCCCCCCCCCCCC(=O)OC[C@H](O)[C@H]1OC(=O)C(O)=C1O [AP, ascorbyl palmitate]	4.62	–	–	–
CN1CCN(c2nc(-c3ccc(C(=O)NC4(C(=O)NCC#N)CCCCC4)cc3)cs2)CC1 [L-006235]	–	less than 10%	–	–
sucrose palmitate [SP]	–	–	0.64	0.64
sucrose stearate [SS]	–	–	1.416	–
triglycerol monostearate [TG18]	–	–	3.899	3.899
